Blank lines part the entries; values can stand above or below the compound they belong to.
How the values were obtained:
[1] = In vitro release kinetics from stent coating; assay type: physicochemical; conditions: single-layer sirolimus/cilostazol EVA/BMA coating with 100 μg BMA overcoat (FIG. 83)
Description: In the study, the rapamycin and Panzem® are incorporated into different layers of a polymeric coating. In this study, a Bx Velocity stent is coated with a four hundred microgram inner layer and a three hundred microgram outer layer. The inner layer comprises forty-five percent Panzem® and fifty-five percent EVA/BMA (50/50). […] There is no topcoat of just polymer in this study. Curve 7100 illustrates the release kinetics of Panzem® from the coating.
Another critical parameter for the performance of the thrombus resistance of a device coated with cilostazol is the duration of the drug release from the coating. This is of particular significance in the two weeks after device implantation. In the porcine drug elution PK studies of the dual drug eluting coating, both cilostazol and sirolius were slowly released from the coating, resulting in a sustained drug release profile. The purpose of the porcine PK study is to assess the local pharmacokinetics of a drug eluting stent at a given implantation time. Normally three stents are implanted in three different coronary arteries in a pig for a given time point and then retrieved for total drug recovery analysis. […] The stents are extracted and the total amount of drug remaining on the stents is determined by analysis utilizing HPLC (high performance liquid chromatography) for total drug amount. […]

[2] = Porcine drug elution PK studies (in vivo release from stent coating); conditions: for drug remaining in the drug coating: after eight (8) days of implantation, single-layer sirolimus/cilostazol EVA/BMA coating with 100 μg BMA overcoat (FIG. 83)
cell viability = test: Cell viability assay; assay type: cell-based
Description: The multiple curves represent various concentrations of topotecan ranging from zero to three hundred nanomolar concentrations.
The multiple curves represent various concentrations of etoposide ranging from zero to eight hundred nanomolar concentrations.

[3] = system: human coronary artery smooth muscle cells; test: Proliferation of cultured human coronary artery smooth muscle cells; assay type: cell-based
Protocol: The multiple curves represent various concentrations of topotecan ranging from zero to three hundred nanomolar concentrations. […]
Curve 8702 illustrates the percent inhibition for various concentrations. In FIG. 88, the six curves 8802, 8804, 8806, 8808, 8810 and 8812 represent various concentrations of PX867 with various concentrations of sirolimus. […] More specifically, curve 8812 illustrates the percent inhibition for a 240 nM PX-867 concentration. […] This may be compared to curve 8804 which represents a 15 nM PX-867 concentration.

[4] = system: human coronary artery smooth muscle cell; test: MTS cytotoxicity assay; assay type: cell-based; conditions: concentrations up to 30,000.00 nanomolar
Description: Typically, a control is utilized to determine baseline toxicity.

tumor cell lines = tumor cell lines (Woo et al. 2002); cited from earlier work
[5] = Drug concentration in liquid formulations (liquid chromatography); assay type: physicochemical; conditions: ethanol, Vitamin E TPGS and water formulation, ethanol less than two percent
Protocol: The concentrations of each constituent were determined by liquid chromatography and are presented as weight by volume figures.
In another exemplary embodiment, the liquid formulation of sirolimus comprises water and ethanol as co-solvents and Vitamin E TPGS as the excipient. The liquid formulation was created utilizing the following process. Two hundred milligrams of sirolimus and two grams of ethanol were added to a pre-weighed twenty milliliter scintillation vial. The vial was vortexed and sonicated until the sirolimus was completely dissolved. Approximately six hundred milligrams of Vitamin E TPGS was then added to the solution of ethanol and sirolimus. The vial was vortexed again until a clear yellowish solution was obtained. Nitrogen gas was then used to reduce the amount of ethanol in the vial to approximately two hundred twenty-nine milligrams. In a separate vial, three hundred milligrams of Vitamin E TPGS was dissolved in eleven milliliters of purified water while undergoing vortexing. The Vitamin E TPGS and water solution was then added to the first vial containing the sirolimus, Vitamin E TPGS and ethanol. The first vial was then vortexed vigorously and continuously for three minutes.
In another exemplary embodiment, a liquid formulation of CCI-779, a sirolimus analog, is prepared utilizing ethanol, Vitamin E TPGS and water. […]

Compound: O=C1CCc2cc(OCCCCc3nnnn3C3CCCCC3)ccc2N1 [cilostazol, 6[4-(1-cyclohexyl-1H-tetrazol-5-yl)-butoxy]-3,4-dihydro-2-(1H)-quinolinone]
- in vitro drug release [1]: ~35%
- drug remaining in the drug coating [2]: ~80%

Compound: COc1cc([C@@H]2c3cc4c(cc3[C@@H](O[C@@H]3O[C@@H]5CO[C@@H](C)O[C@H]5[C@H](O)[C@H]3O)[C@H]3COC(=O)[C@H]23)OCO4)cc(OC)c1O [etoposide]
- cytotoxicity in cell viability assay (cell viability; concentrations up to ten micromolar): non-cytotoxic
- effect on anti-proliferative rapamycin dose response curves ([3]; non-synchronized cells, two percent fetal bovine serum, etoposide zero to eight hundred nanomolar): potentiate the anti-proliferative activity of rapamycin

Compound: COc1c(C)c2c(c(O)c1C/C=C(\C)CCC(=O)O)C(=O)OC2 [mycophenolic acid]
- in vivo elution relative to rapamycin ([2]; EVA/BMA basecoat with 180 μg rapamycin and 180 μg mycophenolic acid, BMA topcoat 0-200 μg): elutes more completely over a shorter duration than the rapamycin
- effect on anti-proliferative rapamycin dose response curve ([3]; non-synchronized cells, two percent fetal bovine serum, mycophenolic acid zero to one thousand nanomolar): potentiates the anti-proliferative activity of rapamycin

- drug remaining in the drug coating [2]: ~80%
Compound: CO[C@H]1C[C@@H]2CC[C@@H](C)[C@@](O)(O2)C(=O)C(=O)N2CCCC[C@H]2C(=O)O[C@H]([C@H](C)C[C@@H]2CC[C@@H](O)[C@H](OC)C2)CC(=O)[C@H](C)/C=C(\C)[C@@H](O)[C@@H](OC)C(=O)[C@H](C)C[C@H](C)/C=C/C=C/C=C/1C [rapamycin]

Compound: COc1cc2c(cc1O)CC[C@@H]1[C@@H]2CC[C@]2(C)[C@@H](O)CC[C@@H]12 [Panzem®, 2-methoxyestradiol]
- cell survival (MTS assay) [4]: do not reduce human coronary artery smooth muscle cell survival
- anti-proliferative activity ([3]; synchronized cells, two percent fetal bovine serum): extremely effective inhibitor
- effect on percent inhibition by rapamycin ([3]; synchronized cells, two percent fetal bovine serum, Panzem zero to 100 micromolar): increases the percent of inhibition of rapamycin alone

Compound: COC[C@H]1OC(=O)/C(=C\N2CCCC2)C2=C(O)C(=O)C3=C([C@H](OC(C)=O)C[C@]4(C)C(=O)CC[C@@H]34)[C@]21C [PX-867]
- inhibition of coronary artery smooth muscle cell proliferation ([3]; PX867 alone at a concentration of about 10^−6): one hundred
- combination effect with sirolimus on percent inhibition ([3]; cultured cells, PX-867 15 nM to 240 nM with various sirolimus concentrations): strong synergistic effect

- in vivo elution relative to rapamycin ([2]; EVA/BMA basecoat with rapamycin and cladribine, 200 μg BMA topcoat, Yorkshire pigs): elutes more rapidly than rapamycin
Compound: Nc1nc(Cl)nc2c1ncn2[C@H]1C[C@H](O)[C@@H](CO)O1 [Cladribine, 2-chlorodeoxyadenosine]
- inhibition of human coronary artery smooth muscle cell proliferation ([3]; non-synchronized cells, two percent fetal bovine serum): completely inhibits
- effect on anti-proliferative rapamycin dose response curves ([3]; non-synchronized cells, two percent fetal bovine serum, cladribine zero to nine hundred nanomolar): potentiate the anti-proliferative activity of rapamycin

Compound: CC[C@@]1(O)C(=O)OCc2c1cc1n(c2=O)Cc2cc3c(CN(C)C)c(O)ccc3nc2-1 [topotecan]
- cytotoxicity in cell viability assay (cell viability; concentrations up to one micromolar): non-cytotoxic
- effect on anti-proliferative rapamycin dose response curves ([3]; synchronized cells, two percent fetal bovine serum, topotecan zero to three hundred nanomolar): potentiate the anti-proliferative activity of rapamycin

Compound: CC(/C=C/C(=O)NO)=C\[C@@H](C)C(=O)c1ccc(N(C)C)cc1 [trichostatin A]
- anti-proliferative IC50's (tumor cell lines): low nM range
- inhibition of human coronary artery smooth muscle cell proliferation ([3]; in vitro cell culture studies): completely inhibit
- IC50 ([3]; in vitro cell culture studies, read-out: anti-proliferative IC50): ~6 nM

- concentration in the final solution (HPLC assay) [5]: 15 mg/mL
Compound: CO[C@H]1C[C@@H]2CC[C@@H](C)[C@@](O)(O2)C(=O)C(=O)N2CCCC[C@H]2C(=O)O[C@H]([C@H](C)C[C@@H]2CC[C@@H](OC(=O)C(C)(CO)CO)[C@H](OC)C2)CC(=O)[C@H](C)/C=C(\C)[C@@H](O)[C@@H](OC)C(=O)[C@H](C)C[C@H](C)/C=C/C=C/C=C/1C [CCI-779]

Source: patent US20080241215A1, “LOCAL VASCULAR DELIVERY OF PROBUCOL ALONE OR IN COMBINATION WITH SIROLIMUS TO TREAT RESTENOSIS, VULNERABLE PLAQUE, AAA AND STROKE” (priority 2007, published 2008)
